Experimental data as given in patent publication US20150210729A1, “MACROLIDE DERIVATIVES, PREPARATION THEREOF AND THERAPEUTIC USE THEREOF” (priority 2012, published 2015).
Values after ≈ are worked out from the molar mass of the structure shown.

These molecules were tested on Mycobacterium tuberculosis H37Rv (assay: Alamar blue (MABA) test, MIC on Mycobacterium tuberculosis H37Rv). Settings: H37RV, read-out: MIC (μM) MTb H37Rv.
Assay type: cell-based

| SMILES | MIC [µM] |
| --- | --- |
| CON=C1C[C@@H](C)O[C@@H](O[C@@H]2[C@@H](C)[C@H](O[C@H]3C[C@@H](C)N(C)C[C@H](C)O3)[C@@H](C)C(=O)O[C@H](C(C)CO[C@@H]3O[C@H](C)[C@@H](O)[C@@H](OC)[C@H]3OC)[C@H](C)[C@@H](OC(=O)CC(C)C)[C@@H](C)C(=O)[C@@](C)(OC(=O)N(C)C)C[C@@H]2C)[C@@H]1O (stereo partly drawn) [Compound 3, (2R,3S,4R,5R,7S,9S,10S,11R,12S,13R)-7-[(dimethylcarbamoyl)oxy]-2-(1-{[(2R,3R,4R,5R,6R)-5-hydroxy-3,4-dimethoxy-6-methyltetrahydro-2H-pyran-2-yl]oxy}propan-2-yl)-10-{[(2S,3R,6R)-3-hydroxy-4-(methoxyimino)-6-methyltetrahydro-2H-pyran-2-yl]oxy}-3,5,7,9,11,13-hexamethyl-6,14-dioxo-12-{[(2S,5R,7R)-2,4,5-trimethyl-1,4-oxazepan-7-yl]oxy}oxacyclotetradecan-4-yl 3-methylbutanoate] | 1.27 (≈ 1.35 µg/mL) |

Same assay, conditions: minimum inhibitory concentration, Alamar blue, strain H37Rv, read-out: MIC (μM) MTb H37Rv

| SMILES | MIC [µM] |
| --- | --- |
| CON=C1C[C@@H](C)O[C@@H](O[C@@H]2[C@@H](C)[C@H](O[C@H]3C[C@@H](C)N(C)C[C@H](C)O3)[C@@H](C)C(=O)O[C@H](C(C)CO[C@@H]3O[C@H](C)[C@@H](O)[C@@H](OC)[C@H]3OC)[C@H](C)[C@@H](OC(=O)CC(C)C)[C@@H](C)C(=O)[C@@](C)(O)C[C@@H]2C)[C@@H]1O (single isomer, unassigned) [Compound 1-a] | 2.05 (≈ 2.03 µg/mL) |
| CON=C1C[C@@H](C)O[C@@H](O[C@@H]2[C@@H](C)[C@H](O[C@H]3C[C@@H](C)N(C)C[C@H](C)O3)[C@@H](C)C(=O)O[C@H](C(C)CO[C@@H]3O[C@H](C)[C@@H](O)[C@@H](OC)[C@H]3OC)[C@H](C)[C@@H](OC(=O)CC(C)C)[C@@H](C)C(=O)[C@@](C)(OC(=O)NC(C)(C)CNS(=O)(=O)c3ccccc3[N+](=O)[O-])C[C@@H]2C)[C@@H]1O (single isomer, unassigned) [Compound 5-a] | 0.34 (≈ 0.438 µg/mL) |
| CON=C1C[C@@H](C)O[C@@H](O[C@@H]2[C@@H](C)[C@H](O[C@H]3C[C@H](C)N(C)C[C@H](C)O3)[C@@H](C)C(=O)O[C@H](C(C)CO[C@@H]3O[C@H](C)[C@@H](O)[C@@H](OC)[C@H]3OC)[C@H](C)[C@@H](OC(=O)CC(C)C)[C@@H](C)C(=O)[C@@](C)(OC(=O)NC(C)(C)CNS(=O)(=O)c3ccccc3[N+](=O)[O-])C[C@@H]2C)[C@@H]1O (single isomer, unassigned) [Compound 5-b] | 0.53 (≈ 0.683 µg/mL) |
| CON=C1C[C@@H](C)O[C@@H](O[C@@H]2[C@@H](C)[C@H](O[C@H]3C[C@@H](C)N(C)C[C@H](C)O3)[C@@H](C)C(=O)O[C@H](C(C)CO[C@@H]3O[C@H](C)[C@@H](O)[C@@H](OC)[C@H]3OC)[C@H](C)[C@@H](OC(=O)CC(C)C)[C@@H](C)C(=O)[C@@](C)(OC(=O)NCc3ccccc3)C[C@@H]2C)[C@@H]1O (single isomer, unassigned) [Compound 7-a] | 0.54 (≈ 0.606 µg/mL) |
| CON=C1C[C@@H](C)O[C@@H](O[C@@H]2[C@@H](C)[C@H](O[C@H]3C[C@H](C)N(C)C[C@H](C)O3)[C@@H](C)C(=O)O[C@H](C(C)CO[C@@H]3O[C@H](C)[C@@H](O)[C@@H](OC)[C@H]3OC)[C@H](C)[C@@H](OC(=O)CC(C)C)[C@@H](C)C(=O)[C@@](C)(OC(=O)NCc3ccccc3)C[C@@H]2C)[C@@H]1O (single isomer, unassigned) [Compound 7-b] | 0.52 (≈ 0.584 µg/mL) |
| CON=C1C[C@@H](C)O[C@@H](O[C@@H]2[C@@H](C)[C@H](O[C@H]3CC(C)N(C)C[C@H](C)O3)[C@@H](C)C(=O)O[C@H](C(C)CO[C@@H]3O[C@H](C)[C@@H](O)[C@@H](OC)[C@H]3OC)[C@H](C)[C@@H](OC(=O)CC(C)C)[C@@H](C)C(=O)[C@@](C)(OC(=O)NC(C)(C)CNS(=O)(=O)c3cn[nH]c3[N+](=O)[O-])C[C@@H]2C)[C@@H]1O (stereo partly drawn) [Compound 4] | 0.21 (≈ 0.268 µg/mL) |
| CON=C1C[C@@H](C)O[C@@H](O[C@@H]2[C@@H](C)[C@H](O[C@H]3CC(C)N(CCF)C[C@H](C)O3)[C@@H](C)C(=O)O[C@H](C(C)CO[C@@H]3O[C@H](C)[C@@H](O)[C@@H](OC)[C@H]3OC)[C@H](C)[C@@H](OC(=O)CC(C)C)[C@@H](C)C(=O)[C@@](C)(OC(=O)NCc3ccccc3)C[C@@H]2C)[C@@H]1O (stereo partly drawn) [Compound 6, (2R,3S,4R,5R,7S,9S,10S,11R,12S,13R)-7-[(benzylcarbamoyl)oxy]-12-{[(2S,7R)-4-(2-fluoroethyl)-2,5-dimethyl-1,4-oxazepan-7-yl]oxy}-2-(1-{[(2R,3R,4R,5R,6R)-5-hydroxy-3,4-dimethoxy-6-methyltetrahydro-2H-pyran-2-yl]oxy}propan-2-yl)-10-{[(2S,3R,6R)-3-hydroxy-4-(methoxyimino)-6-methyltetrahydro-2H-pyran-2-yl]oxy}-3,5,7,9,11,13-hexamethyl-6,14-dioxooxacyclotetradecan-4-yl 3-methylbutanoate] | 0.91 (≈ 1.05 µg/mL) |
| CON=C1C[C@@H](C)O[C@@H](O[C@@H]2[C@@H](C)[C@H](O[C@H]3C[C@H](C)N(CC(C)(C)O)C[C@H](C)O3)[C@@H](C)C(=O)O[C@H]([C@@H](C)CO[C@@H]3O[C@H](C)[C@@H](O)[C@@H](OC)[C@H]3OC)[C@H](C)[C@@H](OC(=O)CC(C)C)[C@@H](C)C(=O)[C@@](C)(OC(=O)NCc3ccccc3)C[C@@H]2C)[C@@H]1O [Compound 11] | 0.63 (≈ 0.744 µg/mL) |
| CON=C1C[C@@H](C)O[C@@H](O[C@@H]2[C@@H](C)[C@H](O[C@H]3C[C@@H](C)N(CC(C)(C)O)C[C@H](C)O3)[C@@H](C)C(=O)O[C@H]([C@@H](C)CO[C@@H]3O[C@H](C)[C@@H](O)[C@@H](OC)[C@H]3OC)[C@H](C)[C@@H](OC(=O)CC(C)C)[C@@H](C)C(=O)[C@@](C)(OC(=O)NCc3ccccc3)C[C@@H]2C)[C@@H]1O [Compound 12] | 0.6 (≈ 0.708 µg/mL) |
| CON=C1C[C@@H](C)O[C@@H](O[C@@H]2[C@@H](C)[C@H](O[C@H]3CC(C)N(CC(=O)Nc4ccc5ccc(C)nc5n4)C[C@H](C)O3)[C@@H](C)C(=O)O[C@H]([C@@H](C)CO[C@@H]3O[C@H](C)[C@@H](O)[C@@H](OC)[C@H]3OC)[C@H](C)[C@@H](OC(=O)CC(C)C)[C@@H](C)C(=O)[C@@](C)(OC(=O)NCc3ccccc3)C[C@@H]2C)[C@@H]1O (stereo partly drawn) [Compound 51] | 0.29 (≈ 0.379 µg/mL) |
| CON=C1C[C@@H](C)O[C@@H](O[C@@H]2[C@@H](C)[C@H](O[C@H]3C[C@@H](C)N(C)CC(C)O3)[C@@H](C)C(=O)O[C@H]([C@@H](C)CO[C@@H]3O[C@H](C)[C@@H](O)[C@@H](OC)[C@H]3OC)[C@H](C)[C@@H](OC(=O)CC(C)C)[C@@H](C)C(=O)[C@@](C)(OC(=O)NC(C)(C)CNS(=O)(=O)c3ccccc3)C[C@@H]2C)[C@@H]1O (stereo partly drawn) [Compound 70] | 0.46 (≈ 0.572 µg/mL) |
